Reference: patent US8268854B2, “Aza-beta-carbolines and methods of using same” (The UWM Research Foundation, Inc., priority 2008, dated 2012)
Counter-ions that a name gives are not always drawn.

Experiments:
[1] = molecular target: T1, Dopamine receptor D4 (Homo sapiens, UniProt P21917); experiment: PDSP secondary radioligand binding assay
T1 construct: expressed in transfected cells
T1 sequence (P21917 1-419): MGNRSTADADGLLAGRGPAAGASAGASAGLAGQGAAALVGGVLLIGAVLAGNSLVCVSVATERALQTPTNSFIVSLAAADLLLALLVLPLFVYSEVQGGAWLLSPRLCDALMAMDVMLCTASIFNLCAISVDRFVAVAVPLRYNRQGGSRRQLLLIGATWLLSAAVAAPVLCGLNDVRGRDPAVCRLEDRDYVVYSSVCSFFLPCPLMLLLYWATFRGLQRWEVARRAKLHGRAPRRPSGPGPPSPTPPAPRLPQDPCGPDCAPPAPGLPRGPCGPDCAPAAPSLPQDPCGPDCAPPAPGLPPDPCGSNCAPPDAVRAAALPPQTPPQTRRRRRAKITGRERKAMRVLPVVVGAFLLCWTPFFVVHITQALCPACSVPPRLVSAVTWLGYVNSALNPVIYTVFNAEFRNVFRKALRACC
Method: (§1) Primary and secondary radioligand binding assays are performed. In general, the primary assay is run at very high ligand (compound) concentration as a broad screen to determine whether a compound binds to a particular receptor. If greater than 50% inhibition at 10 μM (high concentration of compound) at a particular receptor is determined, a secondary assay is performed on that receptor. Data from the secondary assay is the binding affinity (Ki value).
This assay is used to test binding to receptors such as the serotonin receptors: 5-HT1A, 5-HT1B, 5-HT1D, 5-HT1E, 5-HT2A, 5-HT2B, 5-HT2C, 5-HT3, 5-HT5A, 5-HT6 and 5-HT7. The protocol is adapted from Roth et al. J. Pharmacol. Exp. Ther. 1986, 238, 480-485 and Roth et al. J. Pharmacol. Exp. Ther. 1994, 268, 1403-1410. The assay buffer is Standard Binding Buffer (50 mM Tris-HCl, 10 mM MgCl2, 0.1 mM EDTA, pH 7.4). The membrane fraction source is transiently or stably transfected cell lines (e.g., HEK293, COS, CHO, NIH3T3).
A solution of the compound to be tested is prepared as a 1 mg/mL stock in Standard Binding Buffer or DMSO according to its solubility. A similar stock of a reference compound (positive control) is also prepared.
Radioligand (see Table 41) is diluted to five times the assay concentration (see Table 21) in Standard Binding Buffer. […]
The 250 μL reactions are incubated at room temperature and shielded from light (to prevent photolysis of light-sensitive ligands) for 1.5 hours, then harvested by rapid filtration onto Whatman GF/B glass fiber filters pre-soaked with 0.3% polyethyleneimine using a 96-well Brandel harvester. […] The tubes are capped, labeled, and counted by liquid scintillation counting. For higher throughput assays, bound radioactivity is harvested onto 0.3% polyethyleneimine-treated, 96-well filter mats using a 96-well Filtermate harvester. The filter mats are dried, then scintillant is melted onto the filters, and the radioactivity retained on the filters is counted in a Microbeta scintillation counter. […]

[2] = molecular target: T2, Serotonin receptor 5ht1b (Homo sapiens, UniProt P28222); experiment: PDSP primary radioligand binding assay; settings: compound 10 μM
T2 construct: expressed in transfected cells
T2 sequence (P28222 whole entry): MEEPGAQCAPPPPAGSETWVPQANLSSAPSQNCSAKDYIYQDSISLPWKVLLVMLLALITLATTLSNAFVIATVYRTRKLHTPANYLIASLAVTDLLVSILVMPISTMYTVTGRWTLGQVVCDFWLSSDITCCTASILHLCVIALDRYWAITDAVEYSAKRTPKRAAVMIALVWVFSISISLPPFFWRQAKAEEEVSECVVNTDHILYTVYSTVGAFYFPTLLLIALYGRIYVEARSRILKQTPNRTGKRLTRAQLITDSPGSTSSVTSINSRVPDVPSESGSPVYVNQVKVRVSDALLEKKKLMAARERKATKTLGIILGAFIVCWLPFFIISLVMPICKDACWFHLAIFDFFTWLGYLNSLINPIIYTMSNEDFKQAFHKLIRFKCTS
Method: as §1
(§2) A solution of the compound to be tested is prepared as a 1 mg/ml stock in Standard Binding Buffer or dimethyl sulfoxide (DMSO) according to its solubility. A similar stock of a reference compound (positive control) is also prepared.
(§3) Radioligand (radioligands are presented in Table 39) is diluted to five times the assay concentration (assay concentrations are presented in Table 39) in Standard Binding Buffer. Typically, the assay concentration of radioligand is a value between one half the KD and the KD of a particular radioligand at its target. Aliquots (50 μL) of radioligand are dispensed into the wells of a 96-well plate (see FIG. 11) containing 100 μL of Standard Binding Buffer (Table 40). Then, duplicate 50 μL aliquots of the test and reference compound dilutions are added (see FIG. 11). According to FIG. 11, increasing concentrations (from left to right) of reference or test compound (diluted in buffer) are added (50 μL aliquots, in duplicate) from 5× stock solutions to wells containing 50 μL of 5× radioligand (fixed concentration, prepared in buffer) and 100 μL of buffer. Finally, 50 μL of receptor-containing membrane homogenate (5× suspension in buffer) are added to achieve a final assay volume of 250 μL. Final concentrations of reference or test compound are listed above the columns in FIG. 11.
(§4) Finally, crude membrane fractions of cells expressing recombinant target (prepared from 10 cm plates by harvesting phosphate buffered saline (PBS)-rinsed monolayers, resuspending and lysing in chilled, hypotonic 50 mM Tris-HCl, pH 7.4, centrifuging at 20,000×g, decanting the supernatant and storing at −80° C.; typically, one 10 cm plate provides sufficient material for 24 wells) are resuspended in 3 mL of chilled Standard Binding Buffer and homogenized by several passages through a 26 gauge needle, and then 50 μL are dispensed into each well.
(§5) The 250 μL reactions are incubated at room temperature and shielded from light (to prevent photolysis of light-sensitive ligands) for 1.5 hours, then harvested by rapid filtration onto Whatman GF/B glass fiber filters pre-soaked with 0.3% polyethyleneimine using a 96-well Brandel harvester. Four rapid 500 μL washes are performed with chilled Standard Binding Buffer to reduce non-specific binding. Filters are placed in 6 mL scintillation tubes and allowed to dry overnight. The next day, 4 mL of EcoScint scintillation cocktail (National Diagnostics) are added to each tube. The tubes are capped, labeled, and counted by liquid scintillation counting. For higher throughput assays, bound radioactivity is harvested onto 0.3% polyethyleneimine-treated, 96-well filter mats using a 96-well Filtermate harvester. The filter mats are dried, then scintillant is melted onto the filters, and the radioactivity retained on the filters is counted in a Microbeta scintillation counter.
(§6) Raw data (dpm) representing total radioligand binding (i.e., specific+non-specific binding) are plotted as a function of the logarithm of the molar concentration of the competitor (i.e., test or reference compound). […]

[3] = molecular target: T3, NET transporter (Homo sapiens, UniProt P23975); experiment: PDSP primary radioligand binding assay; settings: compound 10 μM
T3 construct: expressed in transfected cells
T3 sequence (P23975 whole entry): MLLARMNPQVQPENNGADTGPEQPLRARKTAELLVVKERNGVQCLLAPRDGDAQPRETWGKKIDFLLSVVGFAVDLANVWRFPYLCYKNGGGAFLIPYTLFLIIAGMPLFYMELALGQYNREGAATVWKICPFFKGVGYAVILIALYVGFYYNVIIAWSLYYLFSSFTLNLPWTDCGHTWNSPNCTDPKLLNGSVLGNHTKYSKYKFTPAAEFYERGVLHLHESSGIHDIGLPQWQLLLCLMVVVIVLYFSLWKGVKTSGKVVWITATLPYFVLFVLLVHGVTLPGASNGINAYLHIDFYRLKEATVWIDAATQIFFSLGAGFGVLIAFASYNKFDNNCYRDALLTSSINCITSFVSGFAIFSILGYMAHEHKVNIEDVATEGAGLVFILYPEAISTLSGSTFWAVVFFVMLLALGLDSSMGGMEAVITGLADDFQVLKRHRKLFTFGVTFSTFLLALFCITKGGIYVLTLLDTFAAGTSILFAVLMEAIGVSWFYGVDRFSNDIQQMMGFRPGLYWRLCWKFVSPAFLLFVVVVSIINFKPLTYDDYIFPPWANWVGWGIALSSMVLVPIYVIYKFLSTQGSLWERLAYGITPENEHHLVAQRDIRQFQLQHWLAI
Method: as §1, §2, §3, §4, §5, §6

Row | Ki [1] [µM] | mean percentage inhibition, Serotonin receptor 5ht1b ([2]; n=4, hydrochloride, 10 µM) [%] | inhibition at 10 µM ([2]; n=4, read-out: mean percentage inhibition, Serotonin receptor 5ht1b) [%] | Compound | mean percentage inhibition, NET transporter ([3]; n=4, hydrochloride, 10 µM) [%] | inhibition at 10 µM ([3]; n=4, read-out: mean percentage inhibition, NET transporter) [%]
1 | 7.5 | 47 | < 50 | CCCOc1cc2c(cn1)[nH]c1ccncc12 [Compound 2, 8-Propoxypyridino[4′,3′-5,4]pyrrolo[3,2-c]pyridine hydrochloride] | – | –
2 | – | – | – | CCCOc1cc2c(cn1)[nH]c1cnccc12 [Compound 4, 3-Propoxy pyridino[4′,3′-4,5]pyrrolo[2,3-c]pyridine hydrochloride] | 36.8 | < 50
